According to ChEMBL document CHEMBL1201862, “PubChem BioAssay data set” (2004):
Calls of active or inactive are those of the source.

Assays:
[1] = target: T1, Sentrin-specific protease 1 (Homo sapiens, UniProt Q9P0U3); assay: potency of human SENP1 inhibitors, dose response, biochemical, kinetic FRET (AID 651697); type: functional; settings: read-out: IC50_Mean
T1 sequence (Q9P0U3 whole entry): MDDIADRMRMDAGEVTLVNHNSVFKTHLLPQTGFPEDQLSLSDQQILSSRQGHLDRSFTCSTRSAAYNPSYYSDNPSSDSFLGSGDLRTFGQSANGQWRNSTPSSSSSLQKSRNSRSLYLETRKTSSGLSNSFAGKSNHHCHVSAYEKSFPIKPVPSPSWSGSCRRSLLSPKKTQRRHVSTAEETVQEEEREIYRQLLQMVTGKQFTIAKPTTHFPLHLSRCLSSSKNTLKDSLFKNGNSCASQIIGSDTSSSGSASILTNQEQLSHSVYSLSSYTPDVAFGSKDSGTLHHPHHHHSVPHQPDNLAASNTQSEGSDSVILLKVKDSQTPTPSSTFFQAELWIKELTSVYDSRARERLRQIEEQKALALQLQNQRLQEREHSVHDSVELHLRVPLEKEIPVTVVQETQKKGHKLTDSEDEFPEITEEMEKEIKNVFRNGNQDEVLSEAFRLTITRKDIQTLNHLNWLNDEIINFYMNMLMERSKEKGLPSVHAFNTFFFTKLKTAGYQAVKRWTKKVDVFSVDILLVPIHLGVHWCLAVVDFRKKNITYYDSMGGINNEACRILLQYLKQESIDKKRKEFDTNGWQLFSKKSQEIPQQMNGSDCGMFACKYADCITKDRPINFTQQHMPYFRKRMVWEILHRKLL

[2] = target: T1, Sentrin-specific protease 1; assay: Dose response confirmation of small molecule inhibitors of the catalytic domain of the SUMO protease, SENP1 in a FRET assay.; type: functional; settings: read-out: IC50_Mean
[3] = (§1) Counterscreen for antagonists of the orexin 1 receptor (OX1R; HCRTR1): Fluorescence-based cell-based high throughput dose response assay to identify antagonists of the parental CHO cell line. [Related pubchem assays (depositor defined):AID434989, AID435008, AID463079, AID485270, AID492963, AID492964, AID492965, AID493232, AID504699, AID504701]; type: functional
Orexin receptor type 2 [4] = target: T2, Orexin receptor type 2 (Homo sapiens, UniProt O43614); assay: Counterscreen assay for antagonists of the orexin 1 receptor (OX1R; HCRTR1): Homogeneous Time Resolved Fluorescence (HTRF)-based cell-based dose response assay for antagonists of the orexin 2 receptor (OX2R; HCRTR2), run by assay provider.; type: functional
T2 sequence (O43614 whole entry): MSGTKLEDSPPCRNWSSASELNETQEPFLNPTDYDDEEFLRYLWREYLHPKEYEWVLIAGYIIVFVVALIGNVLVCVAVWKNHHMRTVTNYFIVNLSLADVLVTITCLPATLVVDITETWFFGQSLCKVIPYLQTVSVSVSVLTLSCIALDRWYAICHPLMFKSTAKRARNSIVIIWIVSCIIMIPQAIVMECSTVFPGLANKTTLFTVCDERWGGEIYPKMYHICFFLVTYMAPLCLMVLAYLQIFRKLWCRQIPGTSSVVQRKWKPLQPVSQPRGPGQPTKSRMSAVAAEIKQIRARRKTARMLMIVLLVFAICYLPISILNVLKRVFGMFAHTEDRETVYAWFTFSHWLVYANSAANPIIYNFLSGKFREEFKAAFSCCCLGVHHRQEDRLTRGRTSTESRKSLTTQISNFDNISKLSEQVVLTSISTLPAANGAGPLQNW

[5] = target: T3, Orexin/Hypocretin receptor type 1 (Homo sapiens, UniProt O43613); assay: (§2) Fluorescence-based cell-based high throughput dose response assay for antagonists of the orexin 1 receptor (OX1R; HCRTR1). [Related pubchem assays (depositor defined):AID434989, AID435008, AID463079, AID485270, AID492963, AID492964, AID492965, AID493232, AID504717, AID504718]; type: functional
T3 sequence (O43613 whole entry): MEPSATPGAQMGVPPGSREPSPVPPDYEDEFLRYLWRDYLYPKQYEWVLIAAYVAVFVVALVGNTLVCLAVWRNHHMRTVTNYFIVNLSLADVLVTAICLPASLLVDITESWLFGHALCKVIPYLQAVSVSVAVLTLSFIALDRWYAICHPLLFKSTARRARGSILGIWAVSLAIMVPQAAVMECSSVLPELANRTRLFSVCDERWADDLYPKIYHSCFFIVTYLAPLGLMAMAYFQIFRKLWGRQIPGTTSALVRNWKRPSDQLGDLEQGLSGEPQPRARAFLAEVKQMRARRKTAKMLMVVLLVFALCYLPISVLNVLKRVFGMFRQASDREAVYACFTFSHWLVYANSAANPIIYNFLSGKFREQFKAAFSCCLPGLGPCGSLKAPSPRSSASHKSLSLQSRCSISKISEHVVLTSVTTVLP

Orexin receptor type 2 [6] = target: T2, Orexin receptor type 2; assay: Counterscreen assay for antagonists of the orexin 1 receptor (OX1R; HCRTR1): Fluorescence-based cell-based dose response assay for antagonists of the orexin 2 receptor (OX2R; HCRTR2), run by assay provider.; type: functional
CHO-K1 = assay: as §1, with “Homogeneous time resolved fluorescence (HTRF)-based” for “Fluorescence-based”, “cell-based” for “cell-based high throughput”, “CHO-K1” for “CHO”; type: functional; settings: Cricetulus griseus;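 further: potency for inhibition of ATP-stimulated IP1 production as antagonists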
[7] = target: T3, Orexin/Hypocretin receptor type 1; assay: as §2, with “Homogeneous Time Resolved Fluorescence (HTRF)-based” for “Fluorescence-based”; type: functional
[8] = target: T4, Low molecular weight phosphotyrosine protein phosphatase (Homo sapiens, UniProt P24666); type: functional; settings: read-out: IC50_Mean
T4 sequence (P24666 whole entry): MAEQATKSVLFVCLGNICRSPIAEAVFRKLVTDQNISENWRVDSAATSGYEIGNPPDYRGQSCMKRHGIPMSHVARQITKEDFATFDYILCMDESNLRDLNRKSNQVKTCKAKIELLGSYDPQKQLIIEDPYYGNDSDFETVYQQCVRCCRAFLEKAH

[9] = target: T4, Low molecular weight phosphotyrosine protein phosphatase; type: functional; settings: read-out: IC50_Mean; remark: listed apart in the source
Protein Wnt-3a = Protein Wnt-3a (Mus musculus, UniProt P27467); assay: Wnt3a-driven reporter signaling inhibition, dose response, selectivity assay for Gli-SUFU antagonist project, Wnt-LIGHT cells, luminescence (AID 651570); type: functional; settings: read-out: IC50_Mean;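 further: Wnt-LIGHT reporter cells stimulated with conditioned medium from Wnt3a-producing cells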
Sequence of Protein Wnt-3a (P27467 whole entry): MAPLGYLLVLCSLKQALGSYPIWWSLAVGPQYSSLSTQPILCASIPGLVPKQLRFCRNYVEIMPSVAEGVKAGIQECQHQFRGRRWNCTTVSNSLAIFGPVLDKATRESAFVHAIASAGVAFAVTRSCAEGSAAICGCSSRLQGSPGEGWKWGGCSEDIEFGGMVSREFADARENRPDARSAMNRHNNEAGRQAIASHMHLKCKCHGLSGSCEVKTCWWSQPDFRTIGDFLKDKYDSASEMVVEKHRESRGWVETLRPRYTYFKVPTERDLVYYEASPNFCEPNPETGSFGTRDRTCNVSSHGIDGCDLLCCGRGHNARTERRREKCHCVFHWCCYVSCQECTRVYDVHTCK

[10] = target: T5, Heat shock factor protein 1 (Mus musculus, UniProt P38532); assay: inhibition of MG132-induced HSE-luciferase signal, confirmation, cell-based, NIH3T3, luminescence, dose retest (AID 2382); type: functional;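 further: NIH3T3 fibroblasts with HSF1-driven luciferase reporter stressed by proteasome inhibitor MG132; luminescence from HSF1-driven luciferase expression after 8 hours of MG132 stress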
T5 sequence (P38532 whole entry): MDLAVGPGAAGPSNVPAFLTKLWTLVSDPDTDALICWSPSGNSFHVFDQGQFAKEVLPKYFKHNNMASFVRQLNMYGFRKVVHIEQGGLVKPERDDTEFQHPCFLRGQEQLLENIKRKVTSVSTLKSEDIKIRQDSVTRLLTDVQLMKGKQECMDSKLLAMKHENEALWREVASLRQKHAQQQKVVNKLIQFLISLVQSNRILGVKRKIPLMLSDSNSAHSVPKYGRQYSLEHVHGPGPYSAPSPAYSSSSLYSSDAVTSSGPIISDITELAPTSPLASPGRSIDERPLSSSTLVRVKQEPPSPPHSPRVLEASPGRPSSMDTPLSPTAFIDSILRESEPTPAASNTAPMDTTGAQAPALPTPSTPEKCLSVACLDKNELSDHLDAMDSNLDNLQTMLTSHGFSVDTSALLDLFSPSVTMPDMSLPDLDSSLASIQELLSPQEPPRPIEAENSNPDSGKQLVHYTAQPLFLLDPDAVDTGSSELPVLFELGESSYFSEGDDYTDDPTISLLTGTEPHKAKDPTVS

[11] = Luminescence Cell-Based Dose Response HTS to Identify Inhibitors of 5'UTR Stem-Loop Driven Prion Protein mRNA Translation in H4 Neuroglioblastoma Cells. [Related pubchem assays: 1827 (Project Summary), 1813 (Primary HTS)]; type: functional
[12] = HEp-2 cell cytotoxicity, dose response, cytotoxicity control for RSV inhibitor project, HTS (AID 2410); type: functional; settings: human respiratory syncytial virus
[13] = inhibitors of SNCA 5'UTR-driven reporter translation, confirmation, H4 neuroglioma cells, luminescence (AID 1988); type: functional, cell-based
[14] = inhibitors of firefly luciferase expression or activity, dose response, H4 neuroglioma cells, luminescence (AID 1990); type: functional, cell-based
[15] = target: Ras and Rab interactor 1/Tyrosine-protein kinase ABL1 (Homo sapiens, UniProt P00519+Q13671); type: functional;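 further: biochemical TR-FRET dose-response test measuring inhibition of binding between Rin1 and Abl proteins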
Sequence of Ras and Rab interactor 1/Tyrosine-protein kinase ABL1 (P00519 whole entry): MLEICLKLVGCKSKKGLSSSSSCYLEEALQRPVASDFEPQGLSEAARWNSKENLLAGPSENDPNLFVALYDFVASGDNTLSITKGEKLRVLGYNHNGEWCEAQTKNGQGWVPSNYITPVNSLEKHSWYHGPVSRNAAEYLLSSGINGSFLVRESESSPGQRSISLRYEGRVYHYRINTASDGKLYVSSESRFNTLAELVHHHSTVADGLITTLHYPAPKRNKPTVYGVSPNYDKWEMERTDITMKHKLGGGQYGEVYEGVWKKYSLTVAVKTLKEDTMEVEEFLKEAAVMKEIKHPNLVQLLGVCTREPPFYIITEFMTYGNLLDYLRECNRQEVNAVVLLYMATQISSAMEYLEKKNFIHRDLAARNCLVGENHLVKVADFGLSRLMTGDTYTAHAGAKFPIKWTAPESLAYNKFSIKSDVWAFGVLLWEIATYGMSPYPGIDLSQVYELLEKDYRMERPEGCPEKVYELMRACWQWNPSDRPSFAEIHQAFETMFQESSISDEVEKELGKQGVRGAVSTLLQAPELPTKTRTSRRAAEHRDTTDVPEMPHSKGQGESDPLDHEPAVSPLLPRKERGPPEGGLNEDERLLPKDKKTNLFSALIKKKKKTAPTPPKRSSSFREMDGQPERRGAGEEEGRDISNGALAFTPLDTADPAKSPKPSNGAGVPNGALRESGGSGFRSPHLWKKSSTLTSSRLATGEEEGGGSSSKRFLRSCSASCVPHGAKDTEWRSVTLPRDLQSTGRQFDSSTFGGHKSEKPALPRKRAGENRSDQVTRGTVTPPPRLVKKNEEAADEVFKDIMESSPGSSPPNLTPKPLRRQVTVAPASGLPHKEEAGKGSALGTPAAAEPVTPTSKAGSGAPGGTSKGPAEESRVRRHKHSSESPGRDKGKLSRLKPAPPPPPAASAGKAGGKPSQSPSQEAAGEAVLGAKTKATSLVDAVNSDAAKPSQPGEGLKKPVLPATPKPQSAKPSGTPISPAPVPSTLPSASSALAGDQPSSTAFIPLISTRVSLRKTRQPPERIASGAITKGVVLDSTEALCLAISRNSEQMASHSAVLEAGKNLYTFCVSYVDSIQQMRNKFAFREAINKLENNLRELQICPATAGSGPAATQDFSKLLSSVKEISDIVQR
Sequence of Ras and Rab interactor 1/Tyrosine-protein kinase ABL1 (Q13671 whole entry): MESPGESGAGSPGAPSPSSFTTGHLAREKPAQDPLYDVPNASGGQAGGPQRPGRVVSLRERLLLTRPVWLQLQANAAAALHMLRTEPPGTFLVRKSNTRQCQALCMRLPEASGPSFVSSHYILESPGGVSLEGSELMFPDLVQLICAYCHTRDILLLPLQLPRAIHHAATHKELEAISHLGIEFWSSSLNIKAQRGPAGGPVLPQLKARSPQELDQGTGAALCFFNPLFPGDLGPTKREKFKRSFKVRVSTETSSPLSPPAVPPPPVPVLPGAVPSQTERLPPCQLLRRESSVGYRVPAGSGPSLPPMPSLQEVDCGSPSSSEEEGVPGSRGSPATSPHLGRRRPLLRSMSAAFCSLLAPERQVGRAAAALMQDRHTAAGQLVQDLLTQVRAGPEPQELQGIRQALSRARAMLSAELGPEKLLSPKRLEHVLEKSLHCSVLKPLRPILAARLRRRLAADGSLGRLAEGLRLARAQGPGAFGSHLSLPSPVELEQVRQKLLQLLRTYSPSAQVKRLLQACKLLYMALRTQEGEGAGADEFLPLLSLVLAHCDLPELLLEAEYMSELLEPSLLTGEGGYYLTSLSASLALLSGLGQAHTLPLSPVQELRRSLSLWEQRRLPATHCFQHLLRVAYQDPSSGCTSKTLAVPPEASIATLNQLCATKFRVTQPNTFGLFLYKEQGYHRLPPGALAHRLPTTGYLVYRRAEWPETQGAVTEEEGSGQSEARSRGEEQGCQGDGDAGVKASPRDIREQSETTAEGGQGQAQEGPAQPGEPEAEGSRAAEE

[16] = target: T6, ATP-dependent translocase ABCB1 (Homo sapiens, UniProt P08183); assay: ABCB1 efflux inhibitor potency, dose response, Jurkat-DNR cells, JC-1, flow cytometry, set 2 (AID 504569); type: functional; settings: read-out: EC50_MICROM_;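 further: potency of pump inhibitors that raise cellular JC-1 green fluorescence up to the nicardipine level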
T6 sequence (P08183 whole entry): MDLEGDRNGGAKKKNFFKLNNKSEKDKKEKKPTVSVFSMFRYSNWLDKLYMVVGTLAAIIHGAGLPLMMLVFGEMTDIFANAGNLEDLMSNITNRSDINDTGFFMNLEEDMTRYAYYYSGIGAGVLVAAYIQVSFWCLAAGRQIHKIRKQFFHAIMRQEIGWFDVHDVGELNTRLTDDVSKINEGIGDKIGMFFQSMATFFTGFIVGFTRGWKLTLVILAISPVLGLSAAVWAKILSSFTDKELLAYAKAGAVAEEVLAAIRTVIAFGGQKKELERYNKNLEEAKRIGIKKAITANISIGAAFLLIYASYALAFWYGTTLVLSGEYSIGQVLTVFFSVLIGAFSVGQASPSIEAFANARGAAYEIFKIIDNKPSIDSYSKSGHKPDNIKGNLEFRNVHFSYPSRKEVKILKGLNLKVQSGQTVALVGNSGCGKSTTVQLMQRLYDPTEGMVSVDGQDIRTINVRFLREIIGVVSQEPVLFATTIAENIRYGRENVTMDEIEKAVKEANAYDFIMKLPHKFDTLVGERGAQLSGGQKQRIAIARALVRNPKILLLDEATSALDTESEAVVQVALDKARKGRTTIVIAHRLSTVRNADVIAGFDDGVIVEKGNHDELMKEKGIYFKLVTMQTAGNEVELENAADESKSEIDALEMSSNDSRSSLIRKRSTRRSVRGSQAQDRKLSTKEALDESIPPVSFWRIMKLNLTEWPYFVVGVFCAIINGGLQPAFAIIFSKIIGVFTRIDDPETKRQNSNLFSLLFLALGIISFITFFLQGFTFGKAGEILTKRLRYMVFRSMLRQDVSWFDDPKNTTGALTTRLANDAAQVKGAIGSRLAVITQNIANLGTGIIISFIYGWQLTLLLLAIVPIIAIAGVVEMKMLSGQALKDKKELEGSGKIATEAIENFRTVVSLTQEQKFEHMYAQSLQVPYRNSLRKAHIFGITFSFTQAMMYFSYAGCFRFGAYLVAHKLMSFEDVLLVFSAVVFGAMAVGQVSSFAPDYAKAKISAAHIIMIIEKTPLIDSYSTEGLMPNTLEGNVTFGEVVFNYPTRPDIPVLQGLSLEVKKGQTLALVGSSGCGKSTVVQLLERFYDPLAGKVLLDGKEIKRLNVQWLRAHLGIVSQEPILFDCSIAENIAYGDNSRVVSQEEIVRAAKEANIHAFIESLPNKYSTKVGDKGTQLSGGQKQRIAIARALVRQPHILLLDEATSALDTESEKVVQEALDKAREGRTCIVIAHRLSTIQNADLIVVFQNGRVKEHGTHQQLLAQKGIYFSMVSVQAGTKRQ

[17] = target: T6, ATP-dependent translocase ABCB1; assay: ABCG2 efflux pump inhibitor potency, dose response, Ig-MXP3 cells, JC-1, flow cytometry, set 2 (AID 504566); type: functional; settings: read-out: EC50_MICROM_;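 further: flow cytometry median green fluorescence of retained JC-1 dye; potency of efflux pump inhibition measured as rising substrate retention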
[18] = target: T7, Mitochondrial peptide methionine sulfoxide reductase (Bos taurus, UniProt P54149); type: functional;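 further: absorbance read-out, biochemical high-throughput dose-response screen for MsrA inhibitors, confirmatory; recombinant bovine MsrA coupled to E. coli TrxB with NADPH and selenocystamine; potency is for inhibitors of MsrA activity on DMSO substrate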
T7 sequence (P54149 whole entry): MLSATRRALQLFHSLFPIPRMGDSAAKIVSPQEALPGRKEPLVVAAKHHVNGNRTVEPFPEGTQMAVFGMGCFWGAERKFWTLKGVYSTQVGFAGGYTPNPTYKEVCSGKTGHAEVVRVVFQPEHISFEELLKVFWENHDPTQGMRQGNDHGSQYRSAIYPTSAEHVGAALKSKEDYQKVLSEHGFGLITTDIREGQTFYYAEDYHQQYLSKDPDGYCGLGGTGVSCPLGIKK

[19] = target: T8, Neuropeptide Y receptor type 2 (Homo sapiens, UniProt P49146); type: functional, cell-based;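 further: HEK293 cells expressing the receptor and a CNG channel; stimulus was NPY near EC95 followed by isoproterenol to raise cAMP; antagonist potency measured as restoring cAMP signal that NPY suppresses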
T8 sequence (P49146 whole entry): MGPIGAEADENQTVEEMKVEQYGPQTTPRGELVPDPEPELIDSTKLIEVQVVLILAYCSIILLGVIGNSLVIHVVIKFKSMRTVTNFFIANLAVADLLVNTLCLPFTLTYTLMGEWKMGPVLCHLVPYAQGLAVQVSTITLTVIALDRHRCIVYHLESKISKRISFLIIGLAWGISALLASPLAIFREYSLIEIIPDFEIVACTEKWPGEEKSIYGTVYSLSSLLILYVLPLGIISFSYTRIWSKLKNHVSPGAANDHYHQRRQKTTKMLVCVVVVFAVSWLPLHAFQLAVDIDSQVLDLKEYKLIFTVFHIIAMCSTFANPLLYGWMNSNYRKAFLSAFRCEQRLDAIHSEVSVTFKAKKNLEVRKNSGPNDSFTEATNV

[20] = target: T9, Neuropeptide Y receptor type 1 (Homo sapiens, UniProt P25929); type: functional;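 further: HEK293 cells with a CNG channel challenged with NPY then isoproterenol; potency as antagonist that reverses NPY suppression of cAMP signal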
T9 sequence (P25929 whole entry): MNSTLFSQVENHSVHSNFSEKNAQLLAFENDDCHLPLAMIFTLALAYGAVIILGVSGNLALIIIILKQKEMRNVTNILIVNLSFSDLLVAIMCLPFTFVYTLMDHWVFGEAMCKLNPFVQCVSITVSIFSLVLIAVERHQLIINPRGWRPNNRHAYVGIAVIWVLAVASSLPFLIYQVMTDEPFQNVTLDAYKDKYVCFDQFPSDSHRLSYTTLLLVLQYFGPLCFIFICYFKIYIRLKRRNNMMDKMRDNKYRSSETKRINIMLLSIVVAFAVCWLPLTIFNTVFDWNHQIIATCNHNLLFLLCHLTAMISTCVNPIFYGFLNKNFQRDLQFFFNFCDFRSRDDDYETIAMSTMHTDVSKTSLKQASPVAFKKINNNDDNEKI

**Q.** Which results are given for `CCc1nnc(NC(=O)CCN2C(=O)/C(=C/c3cc(OC)c(OC)c(OC)c3)SC2=S)s1`?
**A.** IC50 [1]: 29.9 µM (inactive); IC50 [2]: 13.3 µM (active)

**Q.** Which results are given for `Cc1ccc(C)c(NP(=O)(Oc2ccccc2)Oc2ccccc2)c1`?
**A.** IC50 [3]: 49 µM (inactive); IC50 (Orexin receptor type 2 [4]): > 50 µM (inactive); IC50 [5]: 26.3 µM (inactive); IC50 (Orexin receptor type 2 [6]): > 88.8 µM (inactive); IC50 (CHO-K1): > 66.2 µM (inactive); IC50 [7]: 5.47 µM (active)

**Q.** Which IC50 [8] does the source give for `Oc1c2c(nc3cc(-c4ccc(Cl)cc4)nn13)CCS2` here?
**A.** The IC50 was 16.3 µM (active).

**Q.** What about the IC50 [9] of the same compound?
**A.** The IC50 was 13.4 µM (active).

**Q.** Which IC50 (Protein Wnt-3a) does the source give for `Cc1ccc2c(c1)c(C)cc[n+]2Cc1ccccc1` here?
**A.** The IC50 was 15.3 µM (active).

**Q.** For `Cc1nc2c(ccc3nc(NC(=O)Cc4cccc5ccccc45)sc32)s1`, which IC50 [3] is on record?
**A.** The IC50 was > 49.7 µM (inactive).

**Q.** And the IC50 (Orexin receptor type 2 [4])?
**A.** Its IC50 is > 50 µM (inactive).

**Q.** And the IC50 [5]?
**A.** The IC50 was 5.34 µM (active).

**Q.** And the EC50 [10]?
**A.** The EC50 was > 195 µM (not active).

**Q.** What about the IC50 (Orexin receptor type 2 [6]) of the same compound?
**A.** Its IC50 is 17.6 µM (inactive).

**Q.** What about the EC50 [11] of the same compound?
**A.** The EC50 was > 120 µM (not active).

**Q.** And the CC50 [12]?
**A.** The CC50 was 12.2 µM (active).

**Q.** And the EC50 [13]?
**A.** The EC50 was > 60 µM (not active).

**Q.** What about the EC50 [14] of the same compound?
**A.** The EC50 was 16.3 µM (active).

**Q.** What about the IC50 (CHO-K1) of the same compound?
**A.** The IC50 was > 66.2 µM (inactive).

**Q.** And the IC50 [7]?
**A.** The IC50 was 1.45 µM (active).

**Q.** With `Cc1cc(S(=O)(=O)N2CCN(C(=O)CCC(=O)N3CCOCC3)CC2)ccc1Br` as the compound, how does the IC50 [15] read?
**A.** The IC50 was 21.5 µM (inactive).

**Q.** Which results are given for `CC(C)(C)c1cc2nc(C(F)(F)F)cc(N3CCN(C(=O)c4cccs4)CC3)n2n1`?
**A.** EC50 [16]: 6.06 µM (active); EC50 [17]: 1.59 µM (active)

**Q.** For `CCc1nnc(S)n1/N=C/c1cc(Br)c(OC)cc1OC`, which IC50 [18] is on record?
**A.** Its IC50 is 155 µM (inactive).

**Q.** And the IC50 [19]?
**A.** The IC50 was > 35 µM (not active).

**Q.** And the IC50 [20]?
**A.** Its IC50 is > 35 µM (not active).
